Data taken from patent US20200368315A1, “ANTIMICROBIAL PEPTIDES AND ADMIXTURES THEREOF SHOWING ANTIMICROBIAL ACTIVITY AGAINST GRAM-NEGATIVE PATHOGENS” (priority 2017, published 2020).
≈ marks a conversion by molar mass, not a printed value.

Legend:
HEK293 cells = test: in vitro
Experimental: (§1) ATP levels were measured by adding 50 μL of CellTiter-Glo reagent to each well and after 5 minutes of incubation luminescence was measured with SpectraMax i3.
(§2) 96-well plates were seeded with HEK293 cells at concentration of 30,000 cells per well in 100 μL of DMEM growth media supplemented with 1% NEAA and 10% FBS. Border wells were filled with 100 μL of sterile PBS. The next day compounds were added to cells. Compounds were first 2× diluted in 96-well V-bottom plate in PBS. After that compounds were mixed with media in 96-deep-well plate for final concentrations. Growth media from 3 plates was aspirated and replaced with 100 μL of prepared compounds. Compounds were tested in duplicate. ATP levels were measured by adding 50 μL of CellTiter-Glo reagent to each well and after 5 minutes of incubation luminescence was measured with SpectraMax i3. […] The potential effects were then calculated and presented as IC50 values (μg/mL).

in vitro = settings: human
Experimental: as §1, §2

E. coli LMG15862 = test: microbe, parasite or virus in culture; format: cell-based, Escherichia coli; settings: LMG15862
Experimental: (§3) Escherichia coli, Klebsiella pneumoniae, Pseudomonas aeruginosa, Acinetobacter baumannii, Enterobacter aerogenes were grown in Luria-Bertani (LB) broth shaken (200 rpm) or on LB agar at 37° C. […] MICs tests were performed in duplicate by a liquid growth inhibition microdilution assays in sterilized polypropylene microtiter plates according to Wiegand and […] [27]. […] The suspension was diluted in a ratio of 1:100 using Mueller Hinton Broth (MHB) and the final inoculum is 5*10^5 CFU/mL. […] The antimicrobials were diluted serially by 1/2 one by one and 50 uL diluted bacterial suspension were added to each well to make the final volume to be 100 uL. Growth control was accomplished by remove 10 uL from well 11 and dilute 1000 times to plate 1/10 suspension on the solid medium. […] The number of colonies on the control agar plate should be around 50 to ensure the concentration of the inoculum and the effectiveness of the experiment. The lowest concentration of the antimicrobials that inhibits visible growth of the indicator is identified as MIC.

L. lactis MG1363 = settings: MG1363
[1] = tested on: Escherichia coli ATCC BAA-2452; test: microbe, parasite or virus in culture; settings: ATCC BAA-2452
Experimental: (§4) Testing was performed according to CLSI (Clinical Laboratory Standards Institute) guidelines. Read out of the study was determination of MIC—minimal inhibitory concentration expressed in μg/mL.
(§5) Out of these PBS solutions, 76.8 μL was transferred to 1423.2 μL of MH media in deep well for testing compound alone. […] Out of these working solutions 100 μL were transferred to wells in the third column of 96-well assay plates. Assay plates were previously filled with 50 μL of MH media in all wells except for the wells in the third column.
(§6) Microorganisms used were all revived from skim milk storage at −70° C. by plating them on MH agar plates. The following day a single colony of each microorganism was again streaked on fresh agar plates. The next day, using direct colony suspension method, broth solutions that achieve turbidity equivalent to 0.5 McFarland standard for each microorganism were prepared. […] Out of these suspensions, actual inoculums were prepared by diluting them 100× with MH media giving final microorganism count of 2-8×10^5 CFU/mL. For each strain of microorganisms, 20 mL of these inoculum solutions were prepared. From the second to the twelfth column of 96-well plates, 50 μL of these solutions were transferred per well. To the first column, 50 μL per well of pure growth media was added. In this manner the first column was used as sterility control of media used, the second column was used as control of microorganism's growth and the rest of the plate was used for MIC determination. All plates were incubated for 16-24 h at 37° C.
(§7) MIC value was determined by visual inspection of bacterial growth within 96-well plates. The first column in which there was no visible growth of bacteria was determined as MIC value for peptide or combination tested in that particular row.

[2] = tested on: Pseudomonas aeruginosa ATCC BAA-2108; test: microbe, parasite or virus in culture; settings: ATCC BAA-2108
Experimental: as §4, §5, §6, §7

[3] = tested on: Acinetobacter baumannii ATCC BAA-1605; test: microbe, parasite or virus in culture; settings: ATCC BAA-1605
Experimental: as §4, §5, §6, §7

[4] = tested on: Acinetobacter baumannii B2026, clinical isolate; test: microbe, parasite or virus in culture; settings: B2026, clinical isolate
Experimental: as §4, §5, §6, §7

[5] = tested on: Pseudomonas aeruginosa B1954, clinical isolate; test: microbe, parasite or virus in culture; settings: B1954, clinical isolate
Experimental: as §4, §5, §6, §7

[6] = tested on: Klebsiella pneumoniae ATCC BAA-2524; test: microbe, parasite or virus in culture; settings: ATCC BAA-2524
Experimental: as §4, §5, §6, §7

E. aerogenes LMG 02094 = test: microbe, parasite or virus in culture; format: cell-based, Enterobacter aerogenes; settings: LMG 02094
Experimental: as §3

[7] = tested on: human red blood cells (HRBc); test: Hemolytic test; settings: red cells of human, 1 h
Experimental: Fresh human red blood cells (HRBc) were used for the hemolytic tests. After incubation with different concentrations of test compounds at 37° C. for 1 hour, the absorbance of the supernatant were measured.

A. baumannii LMG01041 = test: microbe, parasite or virus in culture; format: cell-based, Acinetobacter baumannii; settings: LMG01041
Experimental: as §3

Effect on ATP levels (HEK293 cells): do not affect the ATP levels
IC50 (in vitro): ≥ 42.8 µM
MIC value (E. coli LMG15862): 4 µM (≈ 5.98 µg/mL)
MIC value of antimicrobial compounds alone (L. lactis MG1363): 16 µM
MIC value [1]: 5.35 µM
MIC value [2]: >85.62 µM
MIC value [3]: 10.7 µM
MIC value [4]: 10.7 µM
MIC value [5]: 85.62 µM
MIC value [6]: >85.62 µM
MIC value (E. aerogenes LMG 02094): 32 µM (≈ 47.8 µg/mL)
MIC value (A. baumannii LMG01041): 8 µM (≈ 12 µg/mL)
SMILES: CC[C@@H](C)[C@@H](NC(=O)[C@H](N)CCCNC(=N)N)C(=O)N[C@@H](C(=O)N[C@H](CCC(N)=O)C(=O)N[C@H](CCCNC(=N)N)C(=O)N[C@@H](C(=O)N[C@H](CCCCN)C(=O)N[C@H](CCCCN)C(=O)N[C@H](Cc1c[nH]c2ccccc12)C(=O)N[C@H](CC(C)C)C(=O)N[C@H](CCCNC(=N)N)C(N)=O)[C@H](C)CC)C(C)C [GNP-D8]
HC50 (hemolytic activity) [7]: >200 µM
